Patent EP3722296B1, “DIHYDRONAPHTHYRIDINES AND RELATED COMPOUNDS USEFUL AS KINASE INHIBITORS FOR THE TREATMENT OF PROLIFERATIVE DISEASES” (Deciphera Pharmaceuticals, LLC, priority 2012, dated 2013)

What was measured:
[1] = molecular target: T1, c-KIT V654A kinase (Homo sapiens, UniProt P10721, V654A); assay: c-KIT V654A Kinase Assay; assay type: biochemical; settings: enzymatic assay, ATP 200 µM
T1 construct: residues T544-V976 with N-terminal GST fusion; purchased deCODE Biostructures
Method in brief: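 Kinase activity tracked by coupled NADH consumption, monitored continuously at 340 nm over 6 h at 30 °C after serially diluted compound was mixed in to start inhibition. Enzyme used was a GST-fused, N-terminally tagged cKIT T544–V976 construct with a TEV cleavage site.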

[2] = molecular target: T2, Phospho-KIT (Tyr719) (Homo sapiens, UniProt P10721, DEL560-578); assay: GIST T1 KIT Western Blot; assay type: cell-based; settings: GIST T1 cells, 4 hours, serum-free medium; read-out: pKIT suppression by western blot analysi GIST T1
T2 construct: endogenous in cells; host or cells: GIST T1
Experimental: GIST48, GIST430, and GIST882 cells were obtained from J. Fletcher (Brigham and Women's Hospital, Boston, MA). GIST T1 cells were obtained from B. Rubin (Cleveland Clinic, Cleveland, OH) and Professor Takahiro Taguchi (Kochi Medical School, Nankoku, Kochi, Japan). […] GIST430 cells were grown in Ham's F10 medium supplemented with 15% characterized fetal bovine serum (Invitrogen, Carlsbad, CA), 30 mg/L bovine pituitary extract (BD Biosciences, San Jose, CA), 0.5% Mito+ serum extender (BD Biosciences, San Jose, CA), 1 unit/mL penicillin G, 1 µg/ml streptomycin, and 0.29 mg/mL L-glutamine at 37 °C, 5%CO2, 95% humidity. GIST T1 cells were grown in DMEM medium supplemented with 10% characterized fetal bovine serum (Invitrogen, Carlsbad, CA), 1 unit/mL penicillin G, 1 µg/ml streptomycin, and 0.29 mg/mL L-glutamine at 37 °C, 5% CO2, and 95% humidity. Cells were allowed to expand until reaching 70-95% confluence at which point they were subcultured or harvested for assay use.
One hundred twenty-five thousand cells were added per well in a 24-well tissue-culture treated plate. Cells were then incubated overnight at 37°C, 5% CO2, 95% humidity. Medium was aspirated, cells were washed with PBS, and serum-free DMEM medium was added. A serial dilution of test compound was added to plates containing cells and plates were incubated for 4 hours at 37°C, 5% CO2, 95% humidity. Cells were washed with PBS, then lysed. Cell lysates were separated by SDS-PAGE and transferred to PVDF. Phospho-KIT (Tyr719) was detected using an antibody from Cell Signaling Technology (Beverly, MA), ECL Plus detection reagent (GE Healthcare, Piscataway, NJ) and a Molecular Devices Storm 840 phosphorimager in fluorescence mode. Blots were stripped and probed for total KIT using an antibody from Santa Cruz Biotech (Santa Cruz, CA). IC50 values were calculated using Prism software (Graphpad, San Diego, CA).

[3] = test system: GIST T1 cells; assay: GIST T1 Cell Proliferation Assay; assay type: cell-based; settings: Homo sapiens, GISTT1, 72 h, 68 hours + 4 hours resazurin
[4] = test system: Phospho-KIT (Tyr719); assay: GIST48 KIT Western Blot; assay type: cell-based; settings: GIST48 cells, 4 hours, serum-free medium; read-out: pKIT suppression by western blot analysi GIST48
Method in brief: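 Phospho-KIT (Tyr719) was immunoblotted on PVDF and imaged in fluorescence mode after ECL Plus, with stripping and reprobing for total KIT. IC50 values were derived from the blot signals.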

T1 sequence (P10721 544-976 V654A): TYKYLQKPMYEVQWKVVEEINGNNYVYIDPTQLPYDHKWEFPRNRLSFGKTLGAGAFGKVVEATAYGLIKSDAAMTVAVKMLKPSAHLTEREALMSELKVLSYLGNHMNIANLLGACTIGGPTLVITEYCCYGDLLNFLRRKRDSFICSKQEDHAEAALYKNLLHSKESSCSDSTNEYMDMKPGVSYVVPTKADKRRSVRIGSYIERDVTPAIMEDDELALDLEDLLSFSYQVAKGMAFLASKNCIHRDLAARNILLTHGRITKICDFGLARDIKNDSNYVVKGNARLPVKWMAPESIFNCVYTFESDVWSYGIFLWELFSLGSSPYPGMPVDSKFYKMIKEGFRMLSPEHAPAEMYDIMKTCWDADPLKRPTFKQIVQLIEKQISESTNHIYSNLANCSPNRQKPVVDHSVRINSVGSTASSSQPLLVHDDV
T2 sequence (P10721 with tags, fused parts or gaps DEL560-578): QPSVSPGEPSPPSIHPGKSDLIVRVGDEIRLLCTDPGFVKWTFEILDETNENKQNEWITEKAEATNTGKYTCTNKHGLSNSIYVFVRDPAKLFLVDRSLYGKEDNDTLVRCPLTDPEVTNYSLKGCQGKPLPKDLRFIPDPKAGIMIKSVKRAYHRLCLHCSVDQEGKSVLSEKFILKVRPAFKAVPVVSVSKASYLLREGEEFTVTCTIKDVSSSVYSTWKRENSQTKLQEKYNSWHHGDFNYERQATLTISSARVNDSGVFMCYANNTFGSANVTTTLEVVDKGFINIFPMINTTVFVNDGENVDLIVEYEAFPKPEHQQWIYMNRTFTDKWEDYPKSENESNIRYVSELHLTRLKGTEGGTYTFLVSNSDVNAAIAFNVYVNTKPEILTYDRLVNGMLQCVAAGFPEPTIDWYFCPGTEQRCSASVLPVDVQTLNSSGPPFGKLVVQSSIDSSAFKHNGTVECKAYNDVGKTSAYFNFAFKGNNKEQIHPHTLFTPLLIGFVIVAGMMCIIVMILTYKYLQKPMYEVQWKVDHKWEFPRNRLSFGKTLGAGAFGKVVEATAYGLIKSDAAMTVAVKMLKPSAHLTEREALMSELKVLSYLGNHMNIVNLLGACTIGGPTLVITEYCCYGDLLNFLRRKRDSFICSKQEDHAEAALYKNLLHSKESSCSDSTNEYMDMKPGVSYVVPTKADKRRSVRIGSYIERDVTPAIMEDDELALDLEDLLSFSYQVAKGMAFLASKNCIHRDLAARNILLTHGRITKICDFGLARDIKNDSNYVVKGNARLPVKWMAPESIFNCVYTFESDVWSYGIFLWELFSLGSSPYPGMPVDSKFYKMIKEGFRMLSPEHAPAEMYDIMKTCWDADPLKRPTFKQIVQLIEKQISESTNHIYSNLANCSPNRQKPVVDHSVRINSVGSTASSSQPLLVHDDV

SMILES | IC50 [1] [nM] | IC50 [2] [nM] | IC50 [4] [nM] | IC50 [3] [nM]
CCn1c(=O)c(-c2cc(NC(=O)Nc3ccccc3)c(F)cc2Cl)cc2cnc(NC)cc21 [Example 3, 1-(4-chloro-5-(1-ethyl-7-(methylamino)-2-oxo-1,2-dihydro-1,6-naphthyridin-3-yl)-2-fluorophenyl)-3-phenylurea] | < 10 | < 10 | 100 to 1000 | < 10
CCn1c(=O)c(-c2cc(NC(=O)Nc3cccc4ccccc34)c(F)cc2Cl)cc2cnc(NC)cc21 [Example 6, 1-(4-chloro-5-(1-ethyl-7-(methylamino)-2-oxo-1,2-dihydro-1,6-naphthyridin-3-yl)-2-fluorophenyl)-3-(naphthalen-1-yl)urea] | 10 to 100 | 10 to 100 | < 10 | 10 to 100
CCn1c(=O)c(-c2cc(NC(=O)Nc3ccccc3)c(F)cc2C)cc2cnc(NC)cc21 [Example 23, 1-(5-(1-ethyl-7-(methylamino)-2-oxo-1,2-dihydro-1,6-naphthyridin-3-yl)-2-fluoro-4-methylphenyl)-3-phenylurea] | < 10 | < 10 | 100 to 1000 | < 10
CCn1c(=O)c(-c2cc(NC(=O)Nc3cccc(F)c3)c(F)cc2Cl)cc2cnc(NC)cc21 [Example 24, 1-[4-chloro-5-(1-ethyl-7-methylamino-2-oxo-1,2-dihydro-[1,6]naphthyridin-3-yl)-2-fluoro-phenyl]-3-(3-fluoro-phenyl)-urea] | < 10 | < 10 | 10 to 100 | < 10
CCn1c(=O)c(-c2cc(NC(=O)Nc3cc(F)cc(F)c3)c(F)cc2Cl)cc2cnc(NC)cc21 [Example 55, 1-(4-chloro-5-(1-ethyl-7-(methylamino)-2-oxo-1,2-dihydro-1,6-naphthyridin-3-yl)-2-fluorophenyl)-3-(3,5-difluorophenyl)urea] | 10 to 100 | – | > 1000 | < 10
CCn1c(=O)c(-c2cc(NC(=O)Nc3cccc(F)c3)c(F)cc2C)cc2cnc(N)cc21 [Example 58, 1-(5-(7-amino-1-ethyl-2-oxo-1,2-dihydro-1,6-naphthyridin-3-yl)-2-fluoro-4-methylphenyl)-3-(3-fluorophenyl)urea] | < 10 | – | 100 to 1000 | < 10
CCn1c(=O)c(-c2cc(NC(=O)Nc3cc(F)cc(F)c3)c(F)cc2C)cc2cnc(NC)cc21 [Example 60, 1-(3,5-difluorophenyl)-3-(5-(1-ethyl-7-(methylamino)-2-oxo-1,2-dihydro-1,6-naphthyridin-3-yl)-2-fluoro-4-methylphenyl)urea] | 10 to 100 | – | > 1000 | 10 to 100
CCn1c(=O)c(-c2cc(NC(=O)Nc3cc(F)cc(F)c3)c(F)cc2Cl)cc2cnc(NC(C)=O)cc21 [Example 67, N-(3-(2-chloro-5-(3-(3,5-difluorophenyl)ureido)-4-fluorophenyl)-1-ethyl-2-oxo-1,2-dihydro-1,6-naphthyridin-7-yl)acetamide] | 10 to 100 | – | < 10 | < 10
CCn1c(=O)c(-c2cc(NC(=O)Nc3ccccc3)c(F)cc2Cl)cc2cnc(NC(=O)OC)cc21 [Example 73, methyl (3-(2-chloro-4-fluoro-5-(3-phenylureido)phenyl)-1-ethyl-2-oxo-1,2-dihydro-1,6-naphthyridin-7-yl)carbamate] | 10 to 100 | – | 10 to 100 | 10 to 100
CNc1cc2c(cn1)cc(-c1cc(NC(=O)Nc3cccc(F)c3)c(F)cc1Cl)c(=O)n2C(C)C [Example 77, 1-(4-chloro-2-fluoro-5-(1-isopropyl-7-(methylamino)-2-oxo-1,2-dihydro-1,6-naphthyridin-3-yl)phenyl)-3-(3-fluorophenyl)urea] | 10 to 100 | – | 10 to 100 | < 10
CCn1c(=O)c(-c2cc(NC(=O)Nc3ccc(F)c(CN4CCN(C)CC4)c3)c(F)cc2Cl)cc2cnc(NC)cc21 [Example 87, 1-(4-chloro-5-(1-ethyl-7-(methylamino)-2-oxo-1,2-dihydro-1,6-naphthyridin-3-yl)-2-fluorophenyl)-3-(4-fluoro-3-((4-methylpiperazin-1-yl)methyl)phenyl)urea] | 100 to 1000 | – | 10 to 100 | 10 to 100
CCn1c(=O)c(-c2cc(NC(=O)Nc3ccccc3)c(F)cc2C)cc2cnc(NC(=O)N(C)C)cc21 [Example 101, 3-(1-ethyl-3-(4-fluoro-2-methyl-5-(3-phenylureido)phenyl)-2-oxo-1,2-dihydro-1,6-naphthyridin-7-yl)-1,1-dimethylurea] | 10 to 100 | – | > 1000 | < 10

Now from value to compound, other results behind:

IC50 [1] [nM] | IC50 [2] [nM] | IC50 [4] [nM] | SMILES | IC50 [3] [nM]
< 10 | – | 10 to 100 | CCn1c(=O)c(-c2cc(NC(=O)Nc3cccc(F)c3F)c(F)cc2Cl)cc2cnc(NC)cc21 [Example 4, 1-(4-chloro-5-(1-ethyl-7-(methylamino)-2-oxo-1,2-dihydro-1,6-naphthyridin-3-yl)-2-fluorophenyl)-3-(2,3-difluorophenyl)urea] | < 10
10 to 100 | < 10 | 100 to 1000 | CCn1c(=O)c(-c2cc(NC(=O)Nc3cccc(F)c3)c(F)cc2Cl)cc2cnc(N)cc21 [Example 20, 1-(5-(7-amino-1-ethyl-2-oxo-1,2-dihydro-1,6-naphthyridin-3-yl)-4-chloro-2-fluorophenyl)-3-(3-fluorophenyl)urea] | –
10 to 100 | < 10 | 10 to 100 | CNc1cc2c(cn1)cc(-c1cc(NC(=O)Nc3ccccc3)c(F)cc1Cl)c(=O)n2C(C)C [Example 22, 1-(4-chloro-2-fluoro-5-(1-isopropyl-7-(methylamino)-2-oxo-1,2-dihydro-1,6-naphthyridin-3-yl)phenyl)-3-phenylurea] | < 10
< 10 | – | 10 to 100 | CCn1c(=O)c(-c2cc(NC(=O)Nc3ccccc3F)c(F)cc2Cl)cc2cnc(NC)cc21 [Example 25, 1-[4-chloro-5-(1-ethyl-7-methylamino-2-oxo-1,2-dihydro-[1,6]naphthyridin-3-yl)-2-fluoro-phenyl]-3-(2-fluoro-phenyl)-urea] | < 10
10 to 100 | – | 10 to 100 | CCn1c(=O)c(-c2cc(NC(=O)Nc3ccccc3)c(F)cc2Cl)cc2cnc(NCCOC)cc21 [Example 27, 1-(4-chloro-5-(1-ethyl-7-(2-methoxyethylamino)-2-oxo-1,2-dihydro-1,6-naphthyridin-3-yl)-2-fluorophenyl)-3-phenylurea] | –
10 to 100 | – | 100 to 1000 | CCn1c(=O)c(-c2cc(NC(=O)Nc3ccccc3)c(F)cc2Br)cc2cnc(NCCOC)cc21 [Example 51, 1-(4-bromo-5-(1-ethyl-7-(2-methoxyethylamino)-2-oxo-1,2-dihydro-1,6-naphthyridin-3-yl)-2-fluorophenyl)-3-phenylurea] | < 10
10 to 100 | – | > 1000 | CCn1c(=O)c(-c2cc(NC(=O)Nc3cc(F)ccc3F)c(F)cc2C)cc2cnc(NC)cc21 [Example 61, 1-(2,5-difluorophenyl)-3-(5-(1-ethyl-7-(methylamino)-2-oxo-1,2-dihydro-1,6-naphthyridin-3-yl)-2-fluoro-4-methylphenyl)urea] | < 10
10 to 100 | – | 10 to 100 | CCn1c(=O)c(-c2cc(NC(=O)Nc3ccccc3)c(F)cc2Cl)cc2cnc(NC(=O)N3CC(O)C3)cc21 [Example 81, N-(3-(2-chloro-4-fluoro-5-(3-phenylureido)phenyl)-1-ethyl-2-oxo-1,2-dihydro-1,6-naphthyridin-7-yl)-3-hydroxyazetidine-1-carboxamide] | < 10
10 to 100 | – | 10 to 100 | CCn1c(=O)c(-c2cc(NC(=O)Nc3ccccc3)c(F)cc2Cl)cc2cnc(NC(=O)N3CC(N(C)C)C3)cc21 [Example 102, N-(3-(2-chloro-4-fluoro-5-(3-phenylureido)phenyl)-1-ethyl-2-oxo-1,2-dihydro-1,6-naphthyridin-7-yl)-3-(dimethylamino)azetidine-1-carboxamide] | < 10
